Values joined by “and” are separate entries in the source; they are usually repeats but may differ in a detail not shown here. Identical values can stand only once. Marks after values point to notes of the source that are not given here.
Assays:
[1] = In vivo p.o. dosing (Protocols 1 and 2): plasma and colon concentrations; set-up: species or system C57BL/6 mice; details: mice, 25 mg/kg p.o. in 20% HPβCD; for Plasma Concentration After p.o. Dosing, Time = 0.5 h, Mean: 0.5 h post dose; for Plasma Concentration After p.o. Dosing, Time = 2 h, Mean: 2 h post dose; for Plasma Concentration After p.o. Dosing, Time = 4 h, Mean: 4 h post dose; for Colon Concentration After p.o. Dosing, Time = 4 h, Mean: colon 4 h post dose
Description: These protocols are described below under the heading In vivo Studies.
(§1) Three non-fasted female C57BL/6 mice were orally administered test compound at a dose of 25 mg/kg p.o. as a solution in 20% hydroxypropyl-beta-cyclodextrin (HPβCD) at a dose volume of 5 mL/kg. Blood samples were collected at 0.5, 2, and 4 h post dose via retro-orbital bleed or venipuncture of the dorsal metatarsal vein. Blood samples were collected into tubes containing anticoagulant (Heparin-Na) and placed on wet ice. The plasma fraction was separated by centrifugation and frozen at −20° C. for up to 4 h and −80° C. after 4 h unless analyzed shortly after sample collection. Colon samples were collected at 4 h post dose. From the beginning of the cecum, a 4-6 cm sample of the colon was dissected, cut open on the longitudinal axis, and the solid contents removed by flushing with 2 mL of saline. The colon was further washed by putting it in 5 mL of saline and shaken for 5 seconds. The colon sample was then patted dry, weighed, and homogenized as 1 part tissue (g) to 4 parts HPLC grade water (mL). Concentrations of the compound in plasma and colon homogenate were determined using a qualified liquid chromatography-triple quadrupole mass spectrometry (LC-MS/MS) method.
as §1, with “HPβCD” for “hydroxypropyl-beta-cyclodextrin (HPβCD)”, “or” for “or venipuncture of the”, “2 cm below” for “the beginning of”, “4” for “4-6”

[2] = In vivo intracolonic (i.c.) dosing (Protocol 3): plasma and colon concentrations; set-up: species or system C57BL/6 mice; details: mice, 5 mg/kg intracolonic in 20% HPβCD; for Plasma Concentration After i.c. Dosing, Time = 2 h, Mean: 2 h post dose; for Plasma Concentration After i.c. Dosing, Time = 4 h, Mean: 4 h post dose
Text: Plasma and colon concentration results were obtained by following Protocol 1 using venipuncture of dorsal metatarsal vein bleed for Compounds (B), (C), and Examples 6 and 11. Plasma and colon concentration results were obtained by following Protocol 2 using retro-orbital bleed for Compounds (A), and Examples 1, and 3-5 and Protocol 2 using venipuncture of the dorsal metatarsal vein for Examples 2, 7-10, and 12. Plasma and colon concentration results were obtained by following Protocol 3 for Examples 1, 3 and 4. These protocols are described below under the heading In vivo Studies.
Intracolonic (IC) dose group: Following anesthesia with isoflurane by inhalation, three non-fasted female C57BL/6 mice were administered the compound intracolonically through a small incision in the abdominal wall using a syringe and needle at a dose of 5 mg/kg as a solution in 20% HPβCD at a dose volume of 1 mL/kg. Blood samples were collected at 0.5, 2, and 4 h post dose via retro-orbital bleed. Blood samples were collected into tubes containing anticoagulant (Heparin-Na) and placed on wet ice. The plasma fraction was separated by centrifugation and frozen at −20° C. for up to 4 h and −80° C. after 4 h unless analyzed shortly after sample collection. Colon samples were collected at 4 h post dose. From 2 cm below the cecum, a 4-cm sample of the colon was dissected, cut open on the longitudinal axis, and the solid contents removed by flushing with 2 mL of saline. The colon was further washed by putting it in 5 mL of saline and shaken for 5 seconds. The colon sample was then patted dry, weighed, and homogenized as 1 part tissue (g) to 4 parts HPLC grade water (mL). Concentrations of the compound in plasma and colon homogenate were determined using a qualified liquid chromatography-triple quadrupole mass spectrometry (LC-MS/MS) method. This protocol was used to evaluate IC dosing of the following test compounds: Examples 1, 3, and 4.

MDCK-MDR1 cell line = assay: MDCK-MDR1 permeability assay; assay type: in vitro ADME; details: apical-to-basolateral, with P-gp inhibitor elacridar (2 μM), 60 min
Description: Permeability measurements were conducted according to the Cyprotex protocol using the MDCK-MDR1 cell line obtained from the NIH (Rockville, Md., USA). […] The cells in this assay form a cohesive sheet of a single cell layer filing the surface area of the culture dish, also known as a confluent monolayer, and on day four the test compound was added to the apical side of the membrane and the transport of the compound across the monolayer was monitored over a time period of 60 min.
Test compounds were dissolved in DMSO at a concentration of 10 mM. The dosing solutions were prepared by diluting test compound with assay buffer (Hanks Balanced Salt Solution), pH 7.4, at a final concentration of 5 μM. For assessment of apical to basolateral (“A-B”) permeability, buffer was removed from the apical compartment and replaced with test compound dosing solution with or without the permeability glycoprotein (“PgP”, “P-gP”, “Pgp” or “P-gp”) inhibitor elacridar (2 μM). For assessment of basolateral to apical (“B-A”) permeability, buffer was removed from the companion plate and replaced with test compound dosing solution. Incubations were carried out in duplicate at 37° C. in an atmosphere of 5% CO2 with a relative humidity of 95%. Each assay included the reference markers propranolol (high permeability) and prazosin (PgP substrate). After incubation for 60 minutes, apical and basolateral samples were diluted and test compounds quantified by LC/MS/MS using an 8-point calibration in the range 0.0039 to 3 μM with appropriate dilution of the samples (receiver dilution factor=1; donor and Co dilution factor=10). The permeability coefficient (Papp) for each compound was calculated from the following equation: Papp=(dQ/dt)/(C0×S), where dQ/dt is the rate of permeation of the drug across the cells, Co is the donor compartment concentration at time zero, and S is the area of the cell monolayer.
Papp(A-B) gives an indication of permeation extent across the cells in this assay, which is envisaged to model the transcellular transport across Pgp-expressing cells, such as Pgp-expressing gastrointestinal tract cells.

| Plasma Concentration After p.o. Dosing, Time = 4 h, Mean [1] | MDCK-MDR1 P^eapp(A-B) @ 5 μM (MDCK-MDR1 cell line) | Structure (SMILES) | also measured |
| --- | --- | --- | --- |
| 11.3 ng/mL | – | N#CC[C@H]1CC[C@H](n2c(CO)nc3cnc4[nH]ccc4c32)CC1 [B] | Plasma Concentration After p.o. Dosing, Time = 0.5 h, Mean [1]: 352.7 ng/mL; Plasma Concentration After p.o. Dosing, Time = 2 h, Mean [1]: 66.3 ng/mL; Colon Concentration After p.o. Dosing, Time = 4 h, Mean [1]: 6076.7 ng/g |
| – | 2.3 10^−6 cm/sec and 1.6 10^−6 cm/sec | N#CC[C@H]1CC[C@H](n2c(CC(=O)NCC3CC3)nc3cnc4[nH]ccc4c32)CC1 [Ex. 3, 2-(1-((1r,4r)-4-(Cyanomethyl)cyclohexyl)-1,6-dihydroimidazo[4,5-d]pyrrolo[2,3-b]pyridin-2-yl)-N-(cyclopropylmethyl)acetamide] | Plasma Concentration After i.c. Dosing, Time = 2 h, Mean [2]: ^∧; Plasma Concentration After i.c. Dosing, Time = 4 h, Mean [2]: ^∧ |
| – | 0.5 10^−6 cm/sec | N#CCCNC(=O)Cc1nc2cnc3[nH]ccc3c2n1[C@H]1CC[C@H](CC#N)CC1 [Ex. 4, N-(2-Cyanoethyl)-2-(1-((1r,4r)-4-(cyanomethyl)cyclohexyl)-1,6-dihydroimidazo[4,5-d]pyrrolo[2,3-b]pyridin-2-yl)acetamide] | Plasma Concentration After i.c. Dosing, Time = 4 h, Mean [2]: ^∧ |
| 1.7^# ng/mL | 0.9 10^−6 cm/sec and 1.1 10^−6 cm/sec | N#CC[C@H]1CC[C@H](n2c(CC(=O)NCC3CCOCC3)nc3cnc4[nH]ccc4c32)CC1 [Ex. 6, 2-(1-((1r,4r)-4-(Cyanomethyl)cyclohexyl)-1,6-dihydroimidazo[4,5-d]pyrrolo[2,3-b]pyridin-2-yl)-N-((tetrahydro-2H-pyran-4-yl)methyl)acetamide] | – |
| – | 1.2 10^−6 cm/sec | CC(C)(C#N)CNC(=O)Cc1nc2cnc3[nH]ccc3c2n1[C@H]1CC[C@H](CC#N)CC1 [Ex. 7, N-(2-Cyano-2-methylpropyl)-2-(1-((1r,4r)-4-(cyanomethyl)cyclohexyl)-1,6-dihydroimidazo[4,5-d]pyrrolo[2,3-b]pyridin-2-yl)acetamide] | – |
| – | 0.5 10^−6 cm/sec | N#CC[C@H]1CC[C@H](n2c(CC(=O)NCC3(O)CCC3)nc3cnc4[nH]ccc4c32)CC1 [Ex. 8, 2-(1-((1r,4r)-4-(Cyanomethyl)cyclohexyl)-1,6-dihydroimidazo[4,5-d]pyrrolo[2,3-b]pyridin-2-yl)-N-((1-hydroxycyclobutyl)methyl)acetamide] | – |
| – | 1.1 10^−6 cm/sec | N#CCC12CCC(NC(=O)Cc3nc4cnc5[nH]ccc5c4n3[C@H]3CC[C@H](CC#N)CC3)(CC1)C2 [Ex. 10, N-(4-(Cyanomethyl)bicyclo[2.2.1]heptan-1-yl)-2-(1-((1r,4r)-4-(cyanomethyl)cyclohexyl)-1,6-dihydroimidazo[4,5-d]pyrrolo[2,3-b]pyridin-2-yl)acetamide] | – |
| – | 0.6 10^−6 cm/sec | N#CC[C@H]1CC[C@H](n2c(CC(=O)NCC3(O)CC3)nc3cnc4[nH]ccc4c32)CC1 [Ex. 12, 2-(1-((1r,4r)-4-(Cyanomethyl)cyclohexyl)-1,6-dihydroimidazo[4,5-d]pyrrolo[2,3-b]pyridin-2-yl)-N-((1-hydroxycyclopropyl)methyl)acetamide] | – |

Continued, compound first:

| Structure (SMILES) | Plasma Concentration After p.o. Dosing, Time = 4 h, Mean [1] | MDCK-MDR1 P^eapp(A-B) @ 5 μM (MDCK-MDR1 cell line) | also measured |
| --- | --- | --- | --- |
| Cc1nc2cnc3[nH]ccc3c2n1[C@H]1CC[C@H](CC#N)CC1 [A] | 84.5 ng/mL | – | Plasma Concentration After p.o. Dosing, Time = 0.5 h, Mean [1]: 347.0 ng/mL; Plasma Concentration After p.o. Dosing, Time = 2 h, Mean [1]: 69.1 ng/mL; Colon Concentration After p.o. Dosing, Time = 4 h, Mean [1]: 895.0 ng/g |
| C[C@@H](O)c1nc2cnc3[nH]ccc3c2n1[C@H]1CC[C@H](CC#N)CC1 [C] | 16.7 ng/mL | – | Plasma Concentration After p.o. Dosing, Time = 0.5 h, Mean [1]: 547.0 ng/mL; Plasma Concentration After p.o. Dosing, Time = 2 h, Mean [1]: 130.2 ng/mL; Colon Concentration After p.o. Dosing, Time = 4 h, Mean [1]: 7776.7 ng/g |
| CC(C)(O)CNC(=O)Cc1nc2cnc3[nH]ccc3c2n1[C@H]1CC[C@H](CC#N)CC1 [Ex. 1, 2-(1-((1r,4r)-4-(Cyanomethyl)cyclohexyl)-1,6-dihydroimidazo[4,5-d]pyrrolo[2,3-b]pyridin-2-yl)-N-(2-hydroxy-2-methylpropyl)acetamide] | – | – | Plasma Concentration After i.c. Dosing, Time = 2 h, Mean [2]: ^∧; Plasma Concentration After i.c. Dosing, Time = 4 h, Mean [2]: ^∧ |
| N#CCC1CCC(n2c(-c3c[nH]cn3)nc3cnc4[nH]ccc4c32)CC1 (stereo not shown) [Ex. 2, 2-((1r,4r)-4-(2-(1H-Imidazol-4-yl)imidazo[4,5-d]pyrrolo[2,3-b]pyridin-1(6H)-yl)cyclohexyl)acetonitrile] | – | 1.6 10^−6 cm/sec | – |
| N#CC[C@H]1CC[C@H](n2c(CC(=O)NC3CCOCC3)nc3cnc4[nH]ccc4c32)CC1 [Ex. 5, 2-(1-((1r,4r)-4-(cyanomethyl)cyclohexyl)-1,6-dihydroimidazo[4,5-d]pyrrolo[2,3-b]pyridin-2-yl)-N-(tetrahydro-2H-pyran-4-yl)acetamide] | – | 0.7 10^−6 cm/sec and 0.5 10^−6 cm/sec | – |
| Cn1cc(NC(=O)Cc2nc3cnc4[nH]ccc4c3n2[C@H]2CC[C@H](CC#N)CC2)cn1 [Ex. 9, 2-(1-((1r,4r)-4-(Cyanomethyl)cyclohexyl)-1,6-dihydroimidazo[4,5-d]pyrrolo[2,3-b]pyridin-2-yl)-N-(1-methyl-1H-pyrazol-4-yl)acetamide] | – | 0.6 10^−6 cm/sec | – |
| N#CC[C@H]1CC[C@H](n2c(CC(=O)Nc3cc[nH]n3)nc3cnc4[nH]ccc4c32)CC1 [Ex. 11, 2-(1-((1r,4r)-4-(Cyanomethyl)cyclohexyl)-1,6-dihydroimidazo[4,5-d]pyrrolo[2,3-b]pyridin-2-yl)-N-(1H-pyrazol-3-yl)acetamide] | ^∧ | 0.8 10^−6 cm/sec | Plasma Concentration After p.o. Dosing, Time = 2 h, Mean [1]: ^∧ |
